Data reported in US12343344B2 (NOVARTIS AG, priority 2019, dated 2025).
Converted amounts (≈) assume the structure as drawn.

Assays:
[1] = tolerability in mice; type: in vivo
[2] = system: tumor xenograft models; experiment: in vivo anti-tumor activity in tumor xenograft models; conditions: subsets of xenograft models incl. breast, melanoma, neuroblastoma, malignant rhabdoid, lung, pancreas, hematological malignancies
[3] = system: lineage-matched pRb-negative cell lines; experiment: cell cycle progression in pRb-negative cell lines; type: cell-based
[4] = tolerability in rats; type: in vivo
[5] = system: pRb-positive cell lines derived from diverse cancer types; experiment: pRb phosphorylation and cell cycle in pRb-positive cell lines; type: cell-based; conditions: more than 40 pRb-positive cell lines
[6] = system: KYSE-520 (esophageal squamous cell carcinoma); experiment: antiproliferation in KYSE-520 cells; type: cell-based; conditions: Homo sapiens
[7] = system: tumor DUSP6 biomarker; experiment: dose fractionation studies with tumor DUSP6 biomarker; type: in vivo; conditions: attained for at least 80% of the dosing interval
From the text: (§1) SHP2 inhibition can be measured by assessing biomarkers within the MAPK signaling pathway, such as decreased levels of phosphorylated ERK1/2 (pERK) and downregulation of dual specificity phosphatase 6 (DUSP6) mRNA transcript.

[8] = system: phosphorylated ERK1/2 (pERK); experiment: in vitro pERK inhibition in DETROIT-562 cells; type: cell-based; conditions: Homo sapiens
From the text: as §1

[9] = system: Cyclin D1, phospho-RB in HCC827 cells; experiment: immunoblot of signalling proteins in HCC827 cells; type: cell-based; conditions: HCC827, 48 hours treatment, TNO155 together with ribociclib (FIG. 2)
Protocol: HCC827 cells were plated in 6-well plates at a density of 2×10^5 cells/well in 2 ml of complete culture medium. […] 48 hours after the treatment, cells were harvested in freshly prepared RIPA cell lysis buffer supplemented with Protease and Phosphatase Inhibitor Cocktail. Proteins extracted from cell lysates were separated by electrophoresis using a NuPAGE 4-12% Bis-Tis gel and were transferred to nitrocellulose membranes, followed by standard immunobloting procedures. The primary antibodies used were all from Cell Signaling Technology with the following catalog numbers: phospho-RB (S807/811, #8516), Cyclin D1 (#2978), cleaved PARP (#9546), phospho-ERK (T202/Y204, #4370), phospho-RSK3 (T356/S360, #9348), phospho-AKT (S473, #4060) and Tubulin (#3873). The signals were visualized by simantanous incubation with goat anti-rabbit secondary antibodies conjugated with Alexa Fluor® 700 and the goat anti-mouse secondary antibody conjugated with IRDye 800 CW for Tubulin (protein loading control) and scanning with an Odyssey Infrared Imager System.

[10] = system: DETROIT-562 (pharyngeal squamous cell carcinoma); experiment: antiproliferation in DETROIT-562 cells; type: cell-based; conditions: Homo sapiens
[11] = up to 28 days, up to 250 mg/kg once daily orally
[12] = up to 28 days, up to 150 mg/kg once daily orally

SMILES | myelosuppression ([1]; correlated with pRb inhibition) | body weight loss [1, 11] | tolerability [1, 11] | in vivo anti-tumor activity [2] | effect on cell cycle progression [3] | myelosuppression ([4]; correlated with pRb inhibition) | body weight loss [4, 12] | tolerability [4, 12] | G1 to S phase cell cycle progression [5] | Retinoblastoma protein (pRb) phosphorylation [5] | IC50 [6] | PD inhibition at which maximal efficacy is achieved [7] | IC50 [8] | ribociclib-induced cyclin D1 accumulation [9] | IC50 [10]
CN(C)C(=O)c1cc2cnc(Nc3ccc(N4CCNCC4)cn3)nc2n1C1CCCC1 [ribociclib, 7-cyclopentyl-N,N-dimethyl-2-((5-(piperazin-1-yl)pyridin-2-yl)amino)-7H-pyrrolo[2,3-d]pyrimidine-6-carboxamide] | myelosuppression was observed | ≤ 12.5% | well-tolerated | demonstrated in vivo anti-tumor activity | no effect | myelosuppression was observed | ≤ 12.5% | well-tolerated | interfered | inhibited |  |  |  |  | 
C[C@@H]1OCC2(CCN(c3cnc(Sc4ccnc(N)c4Cl)c(N)n3)CC2)[C@@H]1N [TNO155, (3S,4S)-8-(6-amino-5-((2-amino-3-chloropyridin-4-yl)thio)pyrazin-2-yl)-3-methyl-2-oxa-8-azaspiro[4.5]decan-4-amine] |  |  |  |  |  |  |  |  |  |  | 0.0422 mg/L (≈ 0.1 µM) | 50% | 0.0148 mg/L (≈ 0.0351 µM) | prevention of ribociclib-induced cyclin D1 accumulation | 0.198 mg/L (≈ 0.47 µM)
